pIC50: −log10 of the molar value.
Experiments:
[1] = test system: FADD-deficient Jurkat cells; assay: Cellular necroptosis assay (human TNFα-induced necrosis, CellTiter-Glo); type: cell-based; conditions: Homo sapiens, Jurkat, 48 h, TNFα 10 ng/mL, read-out: Cell IC50
[2] = molecular target: GST-hRIPK1 (8-327) (Homo sapiens (Human), UniProt Q13546); assay: Fluorescent Polarization Binding (FP Binding) assay
Chain of GST-hRIPK1 (8-327) (Q13546 8-327): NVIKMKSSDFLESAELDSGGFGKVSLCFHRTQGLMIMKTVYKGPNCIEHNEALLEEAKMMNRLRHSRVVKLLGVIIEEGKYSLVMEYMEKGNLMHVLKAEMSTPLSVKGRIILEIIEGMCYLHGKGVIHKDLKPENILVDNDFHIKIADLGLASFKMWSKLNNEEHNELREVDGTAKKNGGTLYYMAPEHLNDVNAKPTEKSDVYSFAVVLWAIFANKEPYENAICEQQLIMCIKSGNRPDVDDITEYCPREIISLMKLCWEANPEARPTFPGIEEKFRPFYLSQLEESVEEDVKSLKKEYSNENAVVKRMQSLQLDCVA

Structure (SMILES)	pIC50 [2]	pIC50 [1]
C[C@H]1Oc2cccnc2N(C)C(=O)[C@H]1NC(=O)c1ncn(Cc2ccccc2)n1 [Example 136, 1-Benzyl-N-((2R,3S)-2,5-dimethyl-4-oxo-2,3,4,5-tetrahydropyrido[3,2-b][1,4]oxazepin-3-yl)-1H-1,2,4-triazole-3-carboxamide]	6.00 to 10.00	6.00 to 10.00
C[C@H]1Oc2cccnc2N(C)C(=O)[C@H]1NC(=O)c1cc(Oc2ccccc2F)ccn1 [Example 117, N-((2R,3S)-2,5-dimethyl-4-oxo-2,3,4,5-tetrahydropyrido[3,2-b][1,4]oxazepin-3-yl)-4-(2-fluorophenoxy)picolinamide]	6.00 to 10.00	6.00 to 10.00
CN1C(=O)[C@@H](NC(=O)c2nc(F)c(Cc3ccccc3)s2)COc2cccnc21 [Example 126, (S)-5-benzyl-4-fluoro-N-(5-methyl-4-oxo-2,3,4,5-tetrahydropyrido[3,2-b][1,4]oxazepin-3-yl)thiazole-2-carboxamide]	6.00 to 10.00	6.00 to 10.00
CN1C(=O)C(NC(=O)c2nnc(Cc3ccccc3)[nH]2)CC(F)(F)c2ccccc21 (stereo not shown) [Example 10, 5-benzyl-N-(5,5-difluoro-1-methyl-2-oxo-2,3,4,5-tetrahydro-1H-benzo[b]azepin-3-yl)-4H-1,2,4-triazole-3-carboxamide]	6.00 to 10.00	6.00 to 10.00
CN1C(=O)[C@@H](NC(=O)c2nn(Cc3ccc(F)cc3)cc2F)COc2cccnc21 [Example 115, (S)-4-fluoro-1-(4-fluorobenzyl)-N-(5-methyl-4-oxo-2,3,4,5-tetrahydropyrido[3,2-b][1,4]oxazepin-3-yl)-1H-pyrazole-3-carboxamide]	6.00 to 10.00	6.00 to 10.00
CN1C(=O)[C@@H](NC(=O)c2nn(Cc3cc(F)cc(C#N)c3)cc2F)COc2cccnc21 [Example 130, (S)-1-(3-Cyano-5-fluorobenzyl)-4-fluoro-N-(5-methyl-4-oxo-2,3,4,5-tetrahydropyrido[3,2-b][1,4]oxazepin-3-yl)-1H-pyrazole-3-carboxamide]	6.00 to 10.00	6.00 to 10.00
Cc1nc2c(s1)CC[C@H](NC(=O)c1nnc(Cc3ccccc3)[nH]1)C(=O)N2C [Example 38A, (S)-5-benzyl-N-(2,4-dimethyl-5-oxo-5,6,7,8-tetrahydro-4H-thiazolo[4,5-b]azepin-6-yl)-4H-1,2,4-triazole-3-carboxamide]	6.00 to 10.00	6.00 to 10.00
C[C@H]1Oc2cccnc2N(C)C(=O)[C@H]1NC(=O)c1cc(Oc2ccccc2F)cnn1 [Example 139, N-((2R,3S)-2,5-dimethyl-4-oxo-2,3,4,5-tetrahydropyrido[3,2-b][1,4]oxazepin-3-yl)-5-(2-fluorophenoxy)pyridazine-3-carboxamide]	6.00 to 10.00	6.00 to 10.00
Cc1c(F)c(C(=O)N[C@H]2COc3ccccc3N(C)C2=O)nn1Cc1ccccc1 [Example 6, (S)-1-benzyl-4-fluoro-5-methyl-N-(5-methyl-4-oxo-2,3,4,5-tetrahydrobenzo[b][1,4]oxazepin-3-yl)-1H-pyrazole-3-carboxamide]	6.00 to 10.00	6.00 to 10.00
O=C(N[C@H]1COc2cccnc2NC1=O)c1nn(Cc2ccccc2)cc1F [Example 57, (S)-1-benzyl-4-fluoro-N-(4-oxo-2,3,4,5-tetrahydropyrido[3,2-b][1,4]oxazepin-3-yl)-1H-pyrazole-3-carboxamide]	6.00 to 10.00	6.00 to 10.00
CN1C(=O)[C@@H](NC(=O)c2nn(Cc3cncc(F)c3)cc2F)COc2cccnc21 [Example 137, (S)-4-Fluoro-1-((5-fluoropyridin-3-yl)methyl)-N-(5-methyl-4-oxo-2,3,4,5-tetrahydropyrido[3,2-b][1,4]oxazepin-3-yl)-1H-pyrazole-3-carboxamide]	6.00 to 10.00	6.00 to 10.00
CN1C(=O)[C@@H](NC(=O)c2ncc(C3(c4ccccc4)CC3)[nH]2)COc2cccnc21 [Example 99, (S)—N-(5-methyl-4-oxo-2,3,4,5-tetrahydropyrido[3,2-b][1,4]oxazepin-3-yl)-5-(1-phenylcyclopropyl)-1H-imidazole-2-carboxamide]	5.00 to 6.00	6.00 to 10.00
CN1C(=O)[C@@H](NC(=O)c2nn(Cc3ccccn3)cc2F)COc2ccccc21 [Example 55, (S)-4-fluoro-N-(5-methyl-4-oxo-2,3,4,5-tetrahydrobenzo[b][1,4]oxazepin-3-yl)-1-(pyridin-2-ylmethyl)-1H-pyrazole-3-carboxamide]	6.00 to 10.00	6.00 to 10.00
CN1C(=O)[C@@H](NC(=O)c2nnc(C3CCc4ccccc43)[nH]2)COc2ccccc21 (stereo partly drawn) [Example 51, 5-(2,3-dihydro-1H-inden-1-yl)-N—((S)-5-methyl-4-oxo-2,3,4,5-tetrahydrobenzo[b][1,4]oxazepin-3-yl)-4H-1,2,4-triazole-3-carboxamide]	6.00 to 10.00	6.00 to 10.00
C[C@H]1Oc2cccnc2N(C)C(=O)[C@H]1NC(=O)c1nn(Cc2cccc(C#N)c2)cc1F [Example 128, 1-(3-Cyanobenzyl)-N-((2R,3S)-2,5-dimethyl-4-oxo-2,3,4,5-tetrahydropyrido[3,2-b][1,4]oxazepin-3-yl)-4-fluoro-1H-pyrazole-3-carboxamide]	6.00 to 10.00	6.00 to 10.00
CN1C(=O)[C@@H](NC(=O)c2nc(C#N)c(Cc3ccccc3)s2)COc2cccnc21 [Example 151, (S)-5-benzyl-4-cyano-N-(5-methyl-4-oxo-2,3,4,5-tetrahydropyrido[3,2-b][1,4]oxazepin-3-yl)thiazole-2-carboxamide]	6.00 to 10.00	6.00 to 10.00
C[C@H]1Oc2cccnc2N(C)C(=O)[C@H]1NC(=O)c1cc(Cc2ccccc2)on1 [Example 112, 5-benzyl-N-((2R,3S)-2,5-dimethyl-4-oxo-2,3,4,5-tetrahydropyrido[3,2-b][1,4]oxazepin-3-yl)isoxazole-3-carboxamide]	6.00 to 10.00	6.00 to 10.00
O=C(N[C@H]1CCc2ccccc2-n2ccnc21)c1cc(Oc2ccccc2F)cnn1 [Example 116, (S)—N-(5,6-dihydro-4H-benzo[f]imidazo[1,2-a]azepin-4-yl)-5-(2-fluorophenoxy)pyridazine-3-carboxamide]	6.00 to 10.00	6.00 to 10.00
CN1C(=O)[C@@H](NC(=O)c2cc(Cc3ccccc3)on2)C2CC2c2ccccc21 (stereo partly drawn) [Example 7, 5-benzyl-N-((2S)-4-methyl-3-oxo-1,1a,2,3,4,8b-hexahydrobenzo[b]cyclopropa[d]azepin-2-yl)isoxazole-3-carboxamide]	6.00 to 10.00	6.00 to 10.00
C[C@H]1Oc2cccnc2N(C)C(=O)[C@H]1NC(=O)c1nnc(C2(c3ccccc3)CC2)o1 [Example 138, N-((2R,3S)-2,5-dimethyl-4-oxo-2,3,4,5-tetrahydropyrido[3,2-b][1,4]oxazepin-3-yl)-5-(1-phenylcyclopropyl)-1,3,4-oxadiazole-2-carboxamide]	6.00 to 10.00	6.00 to 10.00

More lines, main results first:

pIC50 [2]	Structure (SMILES)	pIC50 [1]
6.00 to 10.00	CN1C(=O)[C@@H](NC(=O)c2nnc(Cc3ccccc3)[nH]2)CCc2nn(C)cc21 [Example 105A, (S)-5-benzyl-N-(2,4-dimethyl-5-oxo-2,4,5,6,7,8-hexahydropyrazolo[4,3-b]azepin-6-yl)-4H-1,2,4-triazole-3-carboxamide]	6.00 to 10.00
6.00 to 10.00	N#Cc1cccc(Cc2nnc(C(=O)N[C@@H]3C(=O)Nc4c(F)cc(F)cc4[C@@H]4C[C@H]34)[nH]2)c1 [Example 181B, 5-(3-cyanobenzyl)-N-((1aS,2S,8bR)-5,7-difluoro-3-oxo-1,1a,2,3,4,8b-hexahydrobenzo[b]cyclopropa[d]azepin-2-yl)-4H-1,2,4-triazole-3-carboxamide]	6.00 to 10.00
6.00 to 10.00	CN1C(=O)[C@@H](NC(=O)c2nnc(Cc3ccccc3)o2)[C@H]2C[C@H]2c2cccnc21 [Example 157B, 5-benzyl-N-((1aS,2S,8bR)-4-methyl-3-oxo-1,1a,2,3,4,8b-hexahydrocyclopropa[d]pyrido[2,3-b]azepin-2-yl)-1,3,4-oxadiazole-2-carboxamide]	6.00 to 10.00
6.00 to 10.00	CN1C(=O)[C@@H](NC(=O)c2nn(Cc3ccccc3)cc2F)CCc2nn(C)cc21 [Example 109A, (S)-1-benzyl-N-(2,4-dimethyl-5-oxo-2,4,5,6,7,8-hexahydropyrazolo[4,3-b]azepin-6-yl)-4-fluoro-1H-pyrazole-3-carboxamide]	6.00 to 10.00
6.00 to 10.00	CN1C(=O)[C@@H](NC(=O)c2nnc([C@@H]3CCc4ccccc43)[nH]2)COc2cccnc21 [Example 54A, 5-((R)-2,3-dihydro-1H-inden-1-yl)-N—((S)-5-methyl-4-oxo-2,3,4,5-tetrahydropyrido[3,2-b][1,4]oxazepin-3-yl)-4H-1,2,4-triazole-3-carboxamide]	6.00 to 10.00
6.00 to 10.00	CN1C(=O)[C@@H](NC(=O)c2nnc(Cc3ccccc3)[nH]2)CCc2c1cnn2C [Example 101B, (S)-5-benzyl-N-(1,4-dimethyl-5-oxo-1,4,5,6,7,8-hexahydropyrazolo[4,3-b]azepin-6-yl)-4H-1,2,4-triazole-3-carboxamide]	6.00 to 10.00
6.00 to 10.00	CN1C(=O)[C@@H](NC(=O)c2nn(Cc3ccc(F)cc3)cc2F)[C@H]2C[C@H]2c2cccnc21 [Example 156B, 4-fluoro-1-(4-fluorobenzyl)-N-((1aS,2S,8bR)-4-methyl-3-oxo-1,1a,2,3,4,8b-hexahydrocyclopropa[d]pyrido[2,3-b]azepin-2-yl)-1H-pyrazole-3-carboxamide]	6.00 to 10.00
6.00 to 10.00	Cc1ncccc1Cn1cc(F)c(C(=O)N[C@H]2CCc3nccnc3N(C)C2=O)n1 [Example 182B, (S)-4-fluoro-N-(5-methyl-6-oxo-6,7,8,9-tetrahydro-5H-pyrazino[2,3-b]azepin-7-yl)-1-((2-methylpyridin-3-yl)methyl)-1H-pyrazole-3-carboxamide]	6.00 to 10.00
6.00 to 10.00	CN1C(=O)[C@@H](NC(=O)c2nnc(Cc3ccccc3)o2)C2(CC2)Oc2cccnc21 [Example 160A, (S)-5-benzyl-N-(5′-methyl-4′-oxo-4′,5′-dihydro-3′H-spiro[cyclopropane-1,2′-pyrido[3,2-b][1,4]oxazepin]-3′-yl)-1,3,4-oxadiazole-2-carboxamide]	6.00 to 10.00

— patent US10604535B2, “Compounds, compositions and methods” (Denali Therapeutics Inc., priority 2016, dated 2020)
